# According to patent publication EP0082577A1, “Fungicidal composition and method of combating fungal growth” (SHELL INTERNATIONALE RESEARCH MAATSCHAPPIJ B.V., priority 1981, dated 1983):
# Where a name gives a salt, the structure may show the parent alone.
# Tests used:
# Type in all cases: in vivo
# Plamopara viticola = assay: Grapevine leaf disc test: disease suppression; conditions: alone, 7 days at 21°C
# Procedure: Leaf discs of grapevine (cv. Cabernet Sauvignon) 23mm in diameter, were supported on water agar in petri dishes, and sprayed with various aqueous test preparations. After the spray had dried, the discs were inoculated with Plamopara viticola. The dishes were closed and incubated for 7 days at 21°C. At the end of this period, the percentage area of each disc covered with sporulating downy mildew was estimated, and compared with that on inoculated, untreated control discs.
# In this Table, the theorectical degree of disease suppression, assuming that the two fungicides act independently (i.e. additively) is calculated using the formula: [formula] where x and y are the activities of the two components used separately. If the actual degree of disease suppression (as measured in the test) is greater than the calculated value, then the two fungicides have interacted synergistically.
# Plasmopara viticola = assay: Field spray test on adult fruit-bearing grapevines: disease level; conditions: percentage of disease level on control vines
# Procedure: (§1) The fungicidal and phytotoxic effects of the sodium salt of N-hydroxy-N-formylalanine in admixture with N-(trichlormethyl- thio)phthalimide were compared to those of the N-hydroxy-N-formylalanine salt alone using the following procedure. The test solutions were sprayed onto adult, fruit-bearing grapevines (cv Sauvignon) at 18 day intervals during June, July and August. Four replicate plots were treated. Controls were left untreated.
# (§2) The test solutions contained the active ingredient(s), distilled water and 100ppm of Tween 20 surfactant (Trade mark).
# Seven days after the first spray application and 13 days after the third spray application the vines were innoculated with a spore suspension containing Plasmopara viticola.
# (§3) Assessments of the disease level and phytotoxicity were made 19 days after the 1st treatment, and then after a further 4 weeks (11 days after the 3rd treatment) .
# The extent of disease control in the test is expressed as a percentage of the disease level occuring on the control vines.
# [1] = tested on: grapevines (cv Sauvignon); assay: Field spray test on adult fruit-bearing grapevines: phytotoxicity rating; conditions: mean rating 0-5
# Procedure: as §1, §2, §3
# Phytotoxicity is expressed as a mean rating compared with the control according to the criteria, • 0 = absolutely no phytotoxicity • 1 = doubtful occurence of phytotoxicity • 2 = distinct, but very slight phytotoxicity • 3,4 = slight to moderate phytotoxicity • 5 = phytotoxicity of an unacceptable degree.
# [2] = 250 ppm sodium salt alone, 11 days after 3rd application
# [3] = 250 ppm sodium salt alone, 19 days after 1st application
# [4] = 500 ppm sodium salt alone, 11 days after 3rd application
# [5] = 500 ppm sodium salt alone, 19 days after 1st application
SMILES,Disease Suppression (% of control) Actual (Plamopara viticola; 1 ppm in spray),Disease Suppression (% of control) Actual (Plamopara viticola; 5 ppm in spray),Disease Suppression (% of control) Actual (Plamopara viticola; 10 ppm in spray),DISEASE (Plasmopara viticola; [2]) [%],DISEASE (Plasmopara viticola; [3]) [%],DISEASE (Plasmopara viticola; [4]) [%],DISEASE (Plasmopara viticola; [5]) [%],"PHYTOTOXICITY [1, 2]","PHYTOTOXICITY [1, 3]","PHYTOTOXICITY [1, 4]","PHYTOTOXICITY [1, 5]",Disease Suppression (% of control) Actual (Plamopara viticola; 7.5 ppm in spray),Disease Suppression (% of control) Actual (Plamopara viticola; 15.0 ppm in spray),Disease Suppression (% of control) Actual (Plamopara viticola; 30.0 ppm in spray)
"O=C1c2ccccc2C(=O)N1SC(Cl)(Cl)Cl [N-(trichloromethylthio) phthalimide, N-(trichloromethylthio)phthalimide, reference compound]",-16.2 % of control,-2.7 % of control,82.4 % of control,–,–,–,–,–,–,–,–,–,–,–
CC(C(=O)O)N(O)C=O (centres unmarked) [sodium salt of N-hydroxy-N-formylalanine],–,–,–,26.8,34.7,14.4,17.6,0.8,0.5,1.5,2.0,-8.1 % of control,-2.7 % of control,37.8 % of control
